# Source: article PMC9806845, “Recombinant actin-depolymerizing factor of the apicomplexan Neospora caninum (NcADF) is susceptible to oxidation” (Frontiers in Cellular and Infection Microbiology, 2022)
# Biological target: T1, NcADF (Neospora caninum, UniProt F0VCT8)
# T1 construct: gene NCLIV_012510; N-terminal 6xHis tag, pET28(a), E. coli BL21(DE3), IMAC; 18 kDa; cysteines at 11, 58, 65, 75; TCEP-reduced before assay
# T1 sequence (F0VCT8 1-118): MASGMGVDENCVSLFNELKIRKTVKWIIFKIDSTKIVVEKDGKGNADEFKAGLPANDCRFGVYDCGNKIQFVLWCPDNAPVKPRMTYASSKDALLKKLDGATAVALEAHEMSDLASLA
# Assay: DTNB free-thiol assay; also biotin-iodoacetamide alkylation and SDS-PAGE dimerization
# Assay type: biochemical
# Conditions: covalent (cysteine oxidation, reversible disulfide dimers); 25 uM protein, 20 mM Tris pH 7.0, 30 min
smiles,measurement,value
"O=S(=O)(O)CCNCl [NCT, N-chlorotaurine]",DTNB free-thiol assay; also biotin-iodoacetamide alkylation and SDS-PAGE dimeriz,"micromolar concentration of NCT, but not of H2O2, was sufficient to oxidize the protein"
